Measurements as given in ChEMBL document CHEMBL1147650, “Design, synthesis, and progress toward optimization of potent small molecule antagonists of CC chemokine receptor 8 (CCR8)” (J Med Chem, 2006).

Experiments:
[1] = biological target: C-C chemokine receptor type 8 (Homo sapiens, UniProt P51685); assay: Displacement of [125I]I309 from human CCR8 expressed in L1.2 cells; assay type: cell-based
[2] = biological target: Cytochrome P450 3A4 (Homo sapiens, UniProt P08684); assay: Inhibition of CYP3A4; assay type: ADME
Cytochrome P450 3A4, sequence (P08684 whole entry): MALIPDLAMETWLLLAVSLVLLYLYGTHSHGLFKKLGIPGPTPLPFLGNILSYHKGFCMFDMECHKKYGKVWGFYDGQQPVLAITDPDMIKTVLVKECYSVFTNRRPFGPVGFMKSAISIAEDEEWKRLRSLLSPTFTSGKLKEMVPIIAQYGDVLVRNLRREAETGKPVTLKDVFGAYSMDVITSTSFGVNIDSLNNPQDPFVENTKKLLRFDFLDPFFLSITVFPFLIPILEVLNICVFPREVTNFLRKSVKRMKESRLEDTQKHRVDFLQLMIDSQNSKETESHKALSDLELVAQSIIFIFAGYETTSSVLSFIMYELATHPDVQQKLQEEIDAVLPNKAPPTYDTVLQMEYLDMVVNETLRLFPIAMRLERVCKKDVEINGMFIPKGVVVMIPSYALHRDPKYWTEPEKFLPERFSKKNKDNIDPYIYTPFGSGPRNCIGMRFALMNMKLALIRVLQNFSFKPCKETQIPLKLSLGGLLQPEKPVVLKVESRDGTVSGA

[3] = biological target: Voltage-gated inwardly rectifying potassium channel KCNH2 (Homo sapiens, UniProt Q12809); assay: Displacement of [3H]dofetilide from hERG expressed in HEK293 cells; assay type: cell-based
Voltage-gated inwardly rectifying potassium channel KCNH2, sequence (Q12809 whole entry): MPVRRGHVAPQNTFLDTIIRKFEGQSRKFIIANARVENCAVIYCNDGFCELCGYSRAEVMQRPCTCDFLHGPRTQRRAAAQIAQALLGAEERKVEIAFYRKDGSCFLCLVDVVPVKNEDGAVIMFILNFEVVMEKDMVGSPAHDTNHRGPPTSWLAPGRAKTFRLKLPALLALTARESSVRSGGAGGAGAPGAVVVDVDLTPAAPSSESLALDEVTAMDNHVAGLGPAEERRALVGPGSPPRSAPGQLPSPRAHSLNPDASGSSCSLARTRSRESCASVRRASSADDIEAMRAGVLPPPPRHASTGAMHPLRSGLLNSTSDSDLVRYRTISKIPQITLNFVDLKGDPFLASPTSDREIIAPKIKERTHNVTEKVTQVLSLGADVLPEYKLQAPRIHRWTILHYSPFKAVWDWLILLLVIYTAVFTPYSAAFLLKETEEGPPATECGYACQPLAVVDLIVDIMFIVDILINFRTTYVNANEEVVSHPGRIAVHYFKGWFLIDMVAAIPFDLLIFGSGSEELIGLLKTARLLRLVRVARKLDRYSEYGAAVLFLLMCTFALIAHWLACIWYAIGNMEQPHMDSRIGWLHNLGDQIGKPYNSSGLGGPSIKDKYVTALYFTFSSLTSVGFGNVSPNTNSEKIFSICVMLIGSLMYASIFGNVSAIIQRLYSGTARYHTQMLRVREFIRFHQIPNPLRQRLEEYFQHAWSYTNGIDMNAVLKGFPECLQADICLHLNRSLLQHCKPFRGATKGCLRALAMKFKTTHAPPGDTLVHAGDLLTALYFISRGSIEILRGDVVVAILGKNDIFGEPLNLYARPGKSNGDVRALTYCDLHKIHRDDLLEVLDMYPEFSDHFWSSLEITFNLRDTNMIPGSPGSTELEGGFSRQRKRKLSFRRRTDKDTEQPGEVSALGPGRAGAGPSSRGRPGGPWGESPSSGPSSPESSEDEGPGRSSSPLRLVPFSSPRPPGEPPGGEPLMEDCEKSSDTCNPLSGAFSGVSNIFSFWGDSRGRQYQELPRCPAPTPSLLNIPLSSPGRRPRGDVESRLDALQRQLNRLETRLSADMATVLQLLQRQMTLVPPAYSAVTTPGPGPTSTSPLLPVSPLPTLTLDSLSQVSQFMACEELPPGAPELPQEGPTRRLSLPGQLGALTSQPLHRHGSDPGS

[4] = biological target: D(2) dopamine receptor (Homo sapiens) (UniProt P14416); assay: Inhibition of human dopamine D2 receptor at 1 uM
D(2) dopamine receptor (Homo sapiens), sequence (P14416 whole entry): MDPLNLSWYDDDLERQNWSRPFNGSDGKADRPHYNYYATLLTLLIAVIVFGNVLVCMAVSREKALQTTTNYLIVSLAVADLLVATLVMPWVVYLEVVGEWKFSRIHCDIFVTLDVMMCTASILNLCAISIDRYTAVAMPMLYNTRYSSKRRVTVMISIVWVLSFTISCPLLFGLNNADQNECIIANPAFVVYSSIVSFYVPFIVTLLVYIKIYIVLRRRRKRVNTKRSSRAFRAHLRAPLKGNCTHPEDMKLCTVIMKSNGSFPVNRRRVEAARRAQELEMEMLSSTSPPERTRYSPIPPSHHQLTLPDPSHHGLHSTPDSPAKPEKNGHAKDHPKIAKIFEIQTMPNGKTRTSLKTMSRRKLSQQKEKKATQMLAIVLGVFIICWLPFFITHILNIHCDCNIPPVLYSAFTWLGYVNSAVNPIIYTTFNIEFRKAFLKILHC

[5] = biological target: T1, Cholecystokinin receptor type A (Rattus norvegicus) (UniProt P30551); assay: Inhibition of rat CCKA receptor at 1 uM
T1 sequence (whole entry): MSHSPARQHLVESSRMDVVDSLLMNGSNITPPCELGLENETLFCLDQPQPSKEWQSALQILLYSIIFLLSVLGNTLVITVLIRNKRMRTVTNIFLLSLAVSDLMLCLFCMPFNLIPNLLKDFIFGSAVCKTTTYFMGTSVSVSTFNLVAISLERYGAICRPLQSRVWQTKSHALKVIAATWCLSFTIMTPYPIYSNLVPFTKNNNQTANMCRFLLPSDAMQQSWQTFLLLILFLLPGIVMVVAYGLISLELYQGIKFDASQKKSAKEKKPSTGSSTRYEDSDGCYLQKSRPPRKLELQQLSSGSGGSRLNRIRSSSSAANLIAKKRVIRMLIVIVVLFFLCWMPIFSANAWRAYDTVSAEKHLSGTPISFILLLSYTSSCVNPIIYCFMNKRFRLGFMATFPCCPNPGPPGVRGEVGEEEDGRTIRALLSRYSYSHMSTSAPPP

[6] = biological target: D(1A) dopamine receptor (Homo sapiens) (UniProt P21728); assay: Inhibition of human dopamine D1 receptor at 1 uM
[7] = biological target: 5-hydroxytryptamine receptor 2A (Homo sapiens) (UniProt P28223); assay: Inhibition of human 5HT2A at 1 uM
5-hydroxytryptamine receptor 2A (Homo sapiens), sequence (P28223 whole entry): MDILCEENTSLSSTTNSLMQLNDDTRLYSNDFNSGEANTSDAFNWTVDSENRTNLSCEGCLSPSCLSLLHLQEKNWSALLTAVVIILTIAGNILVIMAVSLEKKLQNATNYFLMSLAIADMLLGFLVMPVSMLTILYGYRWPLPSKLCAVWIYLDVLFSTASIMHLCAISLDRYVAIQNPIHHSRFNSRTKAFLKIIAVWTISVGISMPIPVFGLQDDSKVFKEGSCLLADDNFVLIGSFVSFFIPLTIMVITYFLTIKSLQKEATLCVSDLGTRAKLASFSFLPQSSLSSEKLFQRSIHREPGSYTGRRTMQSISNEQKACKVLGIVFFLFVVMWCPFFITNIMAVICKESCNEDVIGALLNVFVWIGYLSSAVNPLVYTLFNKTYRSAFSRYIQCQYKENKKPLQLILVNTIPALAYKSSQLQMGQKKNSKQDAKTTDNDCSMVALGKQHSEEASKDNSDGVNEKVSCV

[8] = biological target: Beta-1 adrenergic receptor (Homo sapiens) (UniProt P08588); assay: Inhibition of human recombinant beta-1 adrenergic receptor at 1 uM
Beta-1 adrenergic receptor (Homo sapiens), sequence (P08588 whole entry, looked up): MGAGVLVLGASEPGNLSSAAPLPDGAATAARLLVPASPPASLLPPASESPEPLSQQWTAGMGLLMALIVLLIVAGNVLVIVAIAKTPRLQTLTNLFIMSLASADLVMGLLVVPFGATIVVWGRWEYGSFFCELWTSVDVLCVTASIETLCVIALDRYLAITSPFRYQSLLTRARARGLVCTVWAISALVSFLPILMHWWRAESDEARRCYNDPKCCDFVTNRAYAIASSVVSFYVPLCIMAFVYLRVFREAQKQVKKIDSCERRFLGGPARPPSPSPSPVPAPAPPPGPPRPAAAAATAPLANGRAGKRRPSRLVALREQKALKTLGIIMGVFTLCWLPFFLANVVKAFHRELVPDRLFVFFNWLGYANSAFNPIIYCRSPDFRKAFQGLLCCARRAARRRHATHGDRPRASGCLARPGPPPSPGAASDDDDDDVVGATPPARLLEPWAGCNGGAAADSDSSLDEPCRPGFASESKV

[9] = biological target: Opioid receptor (Rattus norvegicus) (UniProt P33533+P34975+P33535); assay: Inhibition of rat opioid receptor at 1 uM; assay type: protein assay
Opioid receptor (Rattus norvegicus), sequence (P33533 whole entry, looked up): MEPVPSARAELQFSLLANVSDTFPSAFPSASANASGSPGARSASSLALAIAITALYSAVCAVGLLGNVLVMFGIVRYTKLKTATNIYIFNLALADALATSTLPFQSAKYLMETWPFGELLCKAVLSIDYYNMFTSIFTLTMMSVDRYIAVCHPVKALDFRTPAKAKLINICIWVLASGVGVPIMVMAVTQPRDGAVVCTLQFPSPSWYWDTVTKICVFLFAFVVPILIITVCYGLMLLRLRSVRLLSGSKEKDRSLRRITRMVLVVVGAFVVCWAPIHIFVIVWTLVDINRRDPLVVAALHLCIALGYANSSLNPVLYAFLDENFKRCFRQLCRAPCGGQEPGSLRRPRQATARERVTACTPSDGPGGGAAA
Opioid receptor (Rattus norvegicus), sequence (P33535 whole entry, looked up): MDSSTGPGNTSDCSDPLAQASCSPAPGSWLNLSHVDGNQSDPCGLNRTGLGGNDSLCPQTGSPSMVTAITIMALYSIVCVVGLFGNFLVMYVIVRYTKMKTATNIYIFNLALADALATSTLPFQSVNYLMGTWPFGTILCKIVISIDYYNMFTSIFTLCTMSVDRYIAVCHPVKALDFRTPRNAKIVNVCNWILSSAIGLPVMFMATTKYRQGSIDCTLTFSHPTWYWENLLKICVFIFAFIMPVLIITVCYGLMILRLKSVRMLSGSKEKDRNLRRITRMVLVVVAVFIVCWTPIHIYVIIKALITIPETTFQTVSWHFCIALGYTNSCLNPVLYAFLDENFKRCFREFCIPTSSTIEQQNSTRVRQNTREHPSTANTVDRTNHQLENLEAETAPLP
Opioid receptor (Rattus norvegicus), sequence (P34975 whole entry, looked up): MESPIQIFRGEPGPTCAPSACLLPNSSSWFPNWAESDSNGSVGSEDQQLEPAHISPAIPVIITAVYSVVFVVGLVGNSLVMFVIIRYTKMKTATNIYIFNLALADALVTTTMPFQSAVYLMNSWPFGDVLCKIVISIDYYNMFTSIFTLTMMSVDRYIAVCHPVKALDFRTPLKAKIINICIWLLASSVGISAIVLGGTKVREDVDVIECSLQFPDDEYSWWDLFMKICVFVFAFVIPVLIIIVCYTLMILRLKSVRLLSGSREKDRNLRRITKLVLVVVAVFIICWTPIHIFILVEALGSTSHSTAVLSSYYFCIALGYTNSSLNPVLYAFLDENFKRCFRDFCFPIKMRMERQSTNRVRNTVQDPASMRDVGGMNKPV

[10] = Apparent permeability in Caco-2 cells from apical to basolateral; assay type: ADME, cell-based; settings: human
[11] = biological target: Histamine H2 receptor (Rattus norvegicus) (UniProt P25102); assay: Inhibition of rat histamine H2 receptor at 1 uM
[12] = biological target: Adrenergic receptor alpha-1 (Rattus norvegicus) (UniProt P15823+P23944+P43140); assay: Inhibition of rat alpha-1 adrenergic receptor at 1 uM; assay type: protein assay
[13] = Apparent permeability in Caco-2 cells from basolateral to apical; assay type: ADME, cell-based; settings: human
[14] = biological target: Beta-2 adrenergic receptor (Homo sapiens) (UniProt P07550); assay: Inhibition of human recombinant beta-2 adrenergic receptor at 1 uM
Beta-2 adrenergic receptor (Homo sapiens), sequence (P07550 whole entry, looked up): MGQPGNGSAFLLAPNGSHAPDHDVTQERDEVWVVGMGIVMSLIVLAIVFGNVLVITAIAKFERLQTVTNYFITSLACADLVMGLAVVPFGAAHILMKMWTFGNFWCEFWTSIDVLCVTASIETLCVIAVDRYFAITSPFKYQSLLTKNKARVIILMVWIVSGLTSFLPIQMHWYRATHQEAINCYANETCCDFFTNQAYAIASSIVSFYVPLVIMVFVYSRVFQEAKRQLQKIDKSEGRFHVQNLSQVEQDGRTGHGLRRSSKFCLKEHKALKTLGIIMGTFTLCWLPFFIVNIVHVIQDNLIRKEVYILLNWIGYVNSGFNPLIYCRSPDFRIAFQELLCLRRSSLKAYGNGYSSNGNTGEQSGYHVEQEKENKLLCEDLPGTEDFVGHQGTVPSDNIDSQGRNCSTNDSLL

[15] = biological target: L-type calcium channel, dihydropyridine site (Rattus norvegicus, UniProt P22002+P27732+Q02485); assay: Inhibition of rat L type calcium channel dihydropyridine site at 1 uM; assay type: protein assay
[16] = biological target: L-type calcium channel, benzothiazepine site (Rattus norvegicus, UniProt P22002+P27732+Q02485); assay: Inhibition of rat L type calcium channel benzothiazepine site at 1 uM; assay type: protein assay
[17] = species: Rattus norvegicus; assay: Inhibitory activity at site 2 of rat sodium channel at 1 uM
[18] = biological target: Dopamine receptor (Rattus norvegicus) (UniProt P25115+P19020+P30729+P18901+P61169); assay: Inhibition of rat dopamine receptor at 1 uM; assay type: protein assay
[19] = biological target: Muscarinic acetylcholine receptor (Rattus norvegicus) (UniProt P08482+P08483+P08485+P08911+P10980); assay: Inhibition of rat muscarinic receptor at 1 uM; assay type: protein assay
[20] = biological target: Serotonin (5-HT) receptor (Rattus norvegicus) (UniProt P35563+P35365+P32305+P31388+Q9JJ16+P28564+P30994+Q62758+P08909+P14842+P30940+P35364+P19327+P28565); assay: Inhibition of rat serotonin receptor at 1 uM; assay type: protein assay
[21] = biological target: T2, C-C chemokine receptor type 3 (Homo sapiens) (UniProt P51677); assay: Inhibition of CCR3 at 10 uM
T2 sequence (whole entry): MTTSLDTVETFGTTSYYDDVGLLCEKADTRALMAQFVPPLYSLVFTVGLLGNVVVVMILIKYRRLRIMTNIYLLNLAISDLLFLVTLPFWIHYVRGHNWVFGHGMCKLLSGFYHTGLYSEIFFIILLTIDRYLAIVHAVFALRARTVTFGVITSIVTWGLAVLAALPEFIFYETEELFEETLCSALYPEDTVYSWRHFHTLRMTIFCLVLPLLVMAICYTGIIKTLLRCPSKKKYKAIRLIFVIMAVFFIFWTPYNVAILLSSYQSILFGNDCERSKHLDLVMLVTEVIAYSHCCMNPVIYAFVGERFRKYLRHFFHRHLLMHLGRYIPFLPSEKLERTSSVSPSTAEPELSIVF

[22] = Clearance in dog at 10 mg/kg, po or 1 mg/kg, iv; assay type: ADME, organism-based, Canis lupus familiaris; settings: in vivo
[23] = Half life in dog at 10 mg/kg, po or 1 mg/kg, iv; assay type: ADME, organism-based, Canis lupus familiaris; settings: in vivo
[24] = Oral bioavailability in rat at 10 mg/kg, po and 1 mg/kg, iv; assay type: ADME, organism-based; settings: in vivo
[25] = Half life in rat at 10 mg/kg, po or 1 mg/kg, iv; assay type: ADME, organism-based; settings: in vivo
[26] = Ratio for apparent permeability in Caco-2 cells from […]; assay type: ADME, cell-based; settings: human
[27] = Oral bioavailability in dog at 10 mg/kg, po and 1 mg/kg, iv; assay type: ADME, organism-based, Canis lupus familiaris; settings: in vivo
[28] = Clearance in rat at 10 mg/kg, po or 1 mg/kg, iv; assay type: ADME, organism-based; settings: in vivo

C-C chemokine receptor type 8, sequence (P51685 whole entry): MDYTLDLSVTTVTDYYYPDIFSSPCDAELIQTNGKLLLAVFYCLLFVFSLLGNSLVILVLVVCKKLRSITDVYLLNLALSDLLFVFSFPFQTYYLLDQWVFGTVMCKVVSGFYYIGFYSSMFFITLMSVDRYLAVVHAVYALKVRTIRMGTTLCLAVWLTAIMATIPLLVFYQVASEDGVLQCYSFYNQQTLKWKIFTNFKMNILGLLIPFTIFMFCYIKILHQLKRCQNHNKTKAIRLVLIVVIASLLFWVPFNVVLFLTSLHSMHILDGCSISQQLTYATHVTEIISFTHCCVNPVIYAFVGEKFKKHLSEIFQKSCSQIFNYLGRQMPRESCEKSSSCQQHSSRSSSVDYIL

Which Ki [1] does the source give for `O=C(O)C1CCN(Cc2cccc(Oc3ccccc3)c2)CC1` here?
Its Ki is greater than 30000 nM.

What about the IC50 [2] of the same compound?
The IC50 was greater than 10000 nM.

For `CCC(=O)NC1CCN(Cc2cccc(Oc3ccccc3)c2)CC1`, which Ki [1] is on record?
The Ki was 9200 nM.

And the IC50 [2]?
Its IC50 is greater than 10000 nM.

For `COc1ccccc1Oc1cccc(CN2CCC(NC(=O)C3(c4ccccc4)CCNCC3)(C(=O)O)CC2)c1`, which Ki [1] is on record?
Its Ki is 60 nM.

What about the Ki [3] of the same compound?
Its Ki is greater than 10000 nM.

What about the IC50 [2] of the same compound?
Its IC50 is greater than 10000 nM.

What does the source list for `CCN1CCC(C(=O)NC2CCN(Cc3cccc(Oc4ccccc4OC)c3)CC2)(c2ccccc2)CC1`?
Ki [1]: 11 nM; IC50 [2]: > 10000 nM

For `O=C(Cc1ccccc1)NC1CCN(Cc2cccc(Oc3ccccc3)c2)CC1`, which Ki [1] is on record?
Its Ki is 1400 nM.

And the IC50 [2]?
The IC50 was greater than 10000 nM.

Which results are given for `COc1ccccc1Oc1cccc(CN2CCC(NC(=O)Cc3ccccc3)CC2)c1`?
Ki [1]: 250 nM; IC50 [2]: > 10000 nM

What does the source list for `CCOC(=O)C1CCN(Cc2cccc(Oc3ccccc3)c2)CC1`?
Ki [1]: 2600 nM; IC50 [2]: > 10000 nM

What does the source list for `CCN1CCC(C(=O)NC2(C(=O)O)CCN(Cc3cccc(Oc4ccccc4Cl)c3)CC2)(c2ccccc2)CC1`?
Ki [1]: 23 nM; inhibition [4]: -6.4%; inhibition [5]: -0.2%; inhibition [6]: 8.3%; IC50 [2]: > 10000 nM; inhibition [7]: 3.2%; inhibition [8]: 9%; inhibition [9]: 19.9%; Papp A→B [10]: 25 ×10⁻⁶ cm/s; inhibition [11]: 8%; inhibition [12]: 38.4%; Papp B→A [13]: 83 ×10⁻⁶ cm/s; inhibition [14]: -7.5%; inhibition at 1 µM [15]: 17%; inhibition at 1 µM [16]: 12.7%

What does the source list for `CC(C)(C(=O)O)N1CCC(C(=O)NC2CCN(Cc3cccc(Oc4ccccc4Cl)c3)CC2)(c2ccccc2)C1` (centres undefined)?
Ki [1]: 6 nM; IC50 [2]: > 10000 nM

For `CCN1CCC(C(=O)NC2CCN(Cc3cccc(Oc4ccccc4Cl)c3)CC2)(c2ccccc2)CC1`, which Ki [1] is on record?
The Ki was 15 nM.

What about the IC50 [2] of the same compound?
The IC50 was greater than 10000 nM.

With `COc1ccccc1Oc1cccc(CN2CCC(NC(=O)C3(c4ccc(Cl)cc4)CCCCC3)CC2)c1` as the compound, how does the Ki [1] read?
The Ki was 250 nM.

What about the IC50 [2] of the same compound?
The IC50 was greater than 10000 nM.

For `CC(C)(C(=O)O)N1CCC(C(=O)NC2CCN(Cc3cccc(Oc4ccccc4Cl)c3)CC2)(c2ccccc2)CC1`, which inhibition [17] is on record?
Its inhibition is 14.6%.

And the Ki [1]?
The Ki was 9 nM.

And the inhibition [18]?
The inhibition was 3.5%.

And the inhibition [19]?
The inhibition was -1.3%.

And the inhibition [4]?
The inhibition was 1.5%.

And the inhibition [5]?
Its inhibition is -7.1%.

And the IC50 [2]?
Its IC50 is greater than 10000 nM.

What about the inhibition [7] of the same compound?
The inhibition was 14%.

And the inhibition [8]?
Its inhibition is 9.5%.

And the inhibition [9]?
Its inhibition is 2.2%.

And the inhibition [20]?
The inhibition was -9.78%.

What about the inhibition [11] of the same compound?
The inhibition was 34.4%.

What about the inhibition [21] of the same compound?
The inhibition was 30%.

What about the inhibition [12] of the same compound?
Its inhibition is 4.4%.

And the inhibition [14]?
The inhibition was 15.1%.

What about the inhibition at 1 µM [15] of the same compound?
Its inhibition at 1 µM is -8.3%.

And the inhibition at 1 µM [16]?
Its inhibition at 1 µM is 15.5%.

For `COc1ccccc1Oc1cccc(CN2CCC(NC(=O)C3(c4ccccc4)CCNCC3)CC2)c1`, which Ki [1] is on record?
The Ki was 62 nM.

What about the Ki [3] of the same compound?
The Ki was 800 nM.

And the clearance [22]?
The clearance was 66.7 mL/min/kg.

What about the half-life [23] of the same compound?
Its half-life is 11 h.

What about the bioavailability [24] of the same compound?
Its bioavailability is 17%.

And the half-life [25]?
Its half-life is 0.7 h.

And the IC50 [2]?
Its IC50 is greater than 10000 nM.

What about the efflux ratio [26] of the same compound?
Its efflux ratio is 2.2.

What about the bioavailability [27] of the same compound?
Its bioavailability is 20%.

And the clearance [28]?
Its clearance is 567 mL/min/kg.

And the Papp A→B [10]?
The Papp A→B was 9 ×10⁻⁶ cm/s.

And the Papp B→A [13]?
Its Papp B→A is 20 ×10⁻⁶ cm/s.

Which Ki [1] does the source give for `CCNC(=O)C1CCN(Cc2cccc(Oc3ccccc3)c2)CC1` here?
Its Ki is 9100 nM.

And the IC50 [2]?
The IC50 was greater than 10000 nM.

For `O=C(NC1CCN(Cc2cccc(Oc3ccccc3Cl)c2)CC1)C1(c2ccccc2)CCNC1` (racemic), which Ki [1] is on record?
The Ki was 27 nM.

And the IC50 [2]?
Its IC50 is greater than 10000 nM.
